Molecules are shown by their SMILES. Where a chain is given by its changes, count along the chain named.

Common to all, as to assay: microscale thermophoresis (MST)
What all share (conditions): read-out: binding affinity
(In general: Microscale thermophoresis detects binding through changes in fluorescence in a small temperature gradient.)

Experiment [1] has as its target T1, LAT2–4F2hc complex (Homo sapiens, UniProt Q9UHI5, F250Y).
T1 construct: gene SLC7A8; LAT2–4F2hc heteromeric complex used for MST; construct, host and tags only in supplement; with Amino acid transporter heavy chain SLC3A2 (4F2 cell-surface antigen heavy chain)
T1 sequence (Q9UHI5 1-535 F250Y): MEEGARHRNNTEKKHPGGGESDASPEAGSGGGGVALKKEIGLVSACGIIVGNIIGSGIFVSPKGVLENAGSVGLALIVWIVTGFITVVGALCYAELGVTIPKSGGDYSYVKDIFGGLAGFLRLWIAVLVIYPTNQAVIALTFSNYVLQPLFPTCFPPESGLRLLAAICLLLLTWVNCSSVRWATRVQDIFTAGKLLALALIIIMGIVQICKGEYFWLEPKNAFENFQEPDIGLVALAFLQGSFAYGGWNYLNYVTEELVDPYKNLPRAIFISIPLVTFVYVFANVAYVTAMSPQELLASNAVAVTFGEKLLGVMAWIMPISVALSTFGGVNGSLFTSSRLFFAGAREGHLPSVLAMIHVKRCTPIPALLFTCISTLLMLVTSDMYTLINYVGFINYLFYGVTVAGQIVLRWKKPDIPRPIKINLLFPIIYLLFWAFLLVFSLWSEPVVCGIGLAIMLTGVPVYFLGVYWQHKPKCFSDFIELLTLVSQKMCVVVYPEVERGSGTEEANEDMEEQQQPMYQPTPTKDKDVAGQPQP
T1 sequence (P08195 2-529 partner): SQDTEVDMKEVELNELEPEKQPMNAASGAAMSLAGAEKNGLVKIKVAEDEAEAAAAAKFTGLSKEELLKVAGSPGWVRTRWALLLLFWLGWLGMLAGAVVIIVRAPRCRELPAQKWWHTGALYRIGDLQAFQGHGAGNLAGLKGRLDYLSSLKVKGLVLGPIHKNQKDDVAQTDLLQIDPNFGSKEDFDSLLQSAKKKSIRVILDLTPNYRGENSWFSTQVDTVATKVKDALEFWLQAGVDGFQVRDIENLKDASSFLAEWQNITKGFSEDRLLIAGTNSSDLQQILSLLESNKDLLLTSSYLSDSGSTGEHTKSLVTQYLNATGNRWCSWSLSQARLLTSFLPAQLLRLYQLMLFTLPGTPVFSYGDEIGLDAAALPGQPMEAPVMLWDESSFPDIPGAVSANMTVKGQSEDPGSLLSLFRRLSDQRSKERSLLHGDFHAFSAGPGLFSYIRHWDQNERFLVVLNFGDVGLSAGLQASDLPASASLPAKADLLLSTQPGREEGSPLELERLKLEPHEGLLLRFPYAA

Experiment [2] deals with T2, LAT2–4F2hc complex (Homo sapiens, UniProt Q9UHI5, V391F).
T2 construct: gene SLC7A8; LAT2–4F2hc heteromeric complex used for MST; construct, host and tags only in supplement; with Amino acid transporter heavy chain SLC3A2 (4F2 cell-surface antigen heavy chain)
T2 sequence (Q9UHI5 1-535 V391F): T1 sequence (Q9UHI5 1-535 F250Y) with Y250F, V391F
T2 sequence (P08195 2-529 partner): T1 sequence (P08195 2-529 partner)

In experiment [3] the target is T3, LAT1–4F2hc complex (Homo sapiens, UniProt Q01650, Y259F).
T3 construct: gene SLC7A5; full-length LAT1–4F2hc heteromeric complex, purified by size-exclusion chromatography; host and tags only in supplement; with Amino acid transporter heavy chain SLC3A2 (4F2 cell-surface antigen heavy chain)

Experiment [4] concerns the target T4, LAT1–4F2hc complex (Homo sapiens, UniProt Q01650, F400V).
T4 construct: gene SLC7A5; full-length LAT1–4F2hc heteromeric complex, purified by size-exclusion chromatography; host and tags only in supplement; with Amino acid transporter heavy chain SLC3A2 (4F2 cell-surface antigen heavy chain)

For experiment [5], the target named is T5, LAT1–4F2hc complex (Homo sapiens, UniProt Q01650).
T5 construct: gene SLC7A5; full-length LAT1–4F2hc heteromeric complex, purified by size-exclusion chromatography; host and tags only in supplement; with Amino acid transporter heavy chain SLC3A2 (4F2 cell-surface antigen heavy chain)

Experiment [6] concerns the target T6, LAT2–4F2hc complex (Homo sapiens, UniProt Q9UHI5).
T6 construct: gene SLC7A8; LAT2–4F2hc heteromeric complex used for MST; construct, host and tags only in supplement; with Amino acid transporter heavy chain SLC3A2 (4F2 cell-surface antigen heavy chain)
T6 sequence (Q9UHI5 1-535): T1 sequence (Q9UHI5 1-535 F250Y) with Y250F
T6 sequence (P08195 2-529 partner): T1 sequence (P08195 2-529 partner)

T4 sequence (Q01650 2-507 F400V, one chain of several): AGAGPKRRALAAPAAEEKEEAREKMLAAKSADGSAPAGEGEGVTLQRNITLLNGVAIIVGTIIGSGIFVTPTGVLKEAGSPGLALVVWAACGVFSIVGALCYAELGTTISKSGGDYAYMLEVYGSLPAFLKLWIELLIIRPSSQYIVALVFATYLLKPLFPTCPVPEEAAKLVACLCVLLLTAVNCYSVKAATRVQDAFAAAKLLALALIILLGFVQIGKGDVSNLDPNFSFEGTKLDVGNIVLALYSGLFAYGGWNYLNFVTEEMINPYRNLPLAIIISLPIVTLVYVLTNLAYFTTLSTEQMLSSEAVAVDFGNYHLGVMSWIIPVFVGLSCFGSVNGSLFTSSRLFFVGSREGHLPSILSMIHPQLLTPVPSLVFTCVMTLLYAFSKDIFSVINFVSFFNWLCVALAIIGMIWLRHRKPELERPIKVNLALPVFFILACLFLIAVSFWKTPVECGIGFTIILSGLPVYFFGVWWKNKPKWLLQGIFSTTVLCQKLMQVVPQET
T3 sequence (Q01650 2-507 Y259F, one chain of several): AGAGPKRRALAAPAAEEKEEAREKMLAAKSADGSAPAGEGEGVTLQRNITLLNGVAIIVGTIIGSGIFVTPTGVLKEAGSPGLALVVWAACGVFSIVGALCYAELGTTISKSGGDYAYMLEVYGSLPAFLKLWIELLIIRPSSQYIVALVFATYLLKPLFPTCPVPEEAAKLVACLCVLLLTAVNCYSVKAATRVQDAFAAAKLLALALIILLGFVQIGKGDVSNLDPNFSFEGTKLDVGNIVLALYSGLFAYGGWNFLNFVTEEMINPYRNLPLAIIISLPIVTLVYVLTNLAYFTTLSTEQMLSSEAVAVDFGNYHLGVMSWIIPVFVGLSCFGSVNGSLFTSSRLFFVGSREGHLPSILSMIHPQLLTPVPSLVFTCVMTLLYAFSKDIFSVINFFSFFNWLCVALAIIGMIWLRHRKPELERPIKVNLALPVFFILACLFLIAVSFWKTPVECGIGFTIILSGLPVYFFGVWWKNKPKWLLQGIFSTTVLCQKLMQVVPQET
T5 sequence (Q01650 2-507, one chain of several): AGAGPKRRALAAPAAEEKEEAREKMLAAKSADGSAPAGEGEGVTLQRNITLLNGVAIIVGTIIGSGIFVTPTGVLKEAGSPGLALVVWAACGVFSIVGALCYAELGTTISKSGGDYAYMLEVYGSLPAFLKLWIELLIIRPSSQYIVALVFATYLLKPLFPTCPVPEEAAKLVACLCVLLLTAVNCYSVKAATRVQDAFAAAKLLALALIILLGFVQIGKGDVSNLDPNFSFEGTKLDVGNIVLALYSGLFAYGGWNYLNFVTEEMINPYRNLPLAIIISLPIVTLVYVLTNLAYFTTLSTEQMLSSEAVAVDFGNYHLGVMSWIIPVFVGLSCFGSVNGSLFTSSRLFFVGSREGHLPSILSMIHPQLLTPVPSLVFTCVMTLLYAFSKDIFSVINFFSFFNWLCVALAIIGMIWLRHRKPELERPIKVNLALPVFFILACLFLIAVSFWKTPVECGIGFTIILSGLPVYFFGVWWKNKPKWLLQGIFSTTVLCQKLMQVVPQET

Consider `Nc1cc(COc2c(Cl)cc(C[C@H](N)C(=O)O)cc2Cl)c2oc(-c3ccccc3)nc2c1` [JPH203], for which the Kd in experiment [1] worked out at 2.55 ± 0.96 µM; in experiment [2], 1.78 ± 0.65 µM; in experiment [3], 3.81 ± 1.26 µM; in experiment [4] it was 6.21 ± 1.58 µM; in experiment [5] it was 1.48 ± 0.28 µM; in experiment [6], 4.51 ± 1.35 µM.

(Values after publication PMC11220031, “Structural basis for the inhibition mechanism of LAT1-4F2hc complex by JPH203” (Cell Discovery, 2024).)
